Biological target: T1, hFASN enzyme (full length) (Homo sapiens, UniProt P49327)
T1 construct: 10 μL hFASN enzyme (full length, 300 ng, purified in house); made in house
Experiment: Fatty Acid Synthase (FASN) inhibition scintillation proximity assay
Type: biochemical
Conditions: for inhibition at 10 µM: read-out: Human FASN % inhibition @ 10 μM, 10 μM test compound; for IC50: read-out: Human FASN pIC50 (converted)
Summary of the method: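 Scintillation proximity format: in-house full-length enzyme, 300 ng per well, pH 7.5 phosphate/DTT buffer, ³H-acetyl-CoA and malonyl-CoA. Emission counted on LEADseeker at 610 nm at least 24 h after stopping.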

T1 sequence (P49327 whole entry): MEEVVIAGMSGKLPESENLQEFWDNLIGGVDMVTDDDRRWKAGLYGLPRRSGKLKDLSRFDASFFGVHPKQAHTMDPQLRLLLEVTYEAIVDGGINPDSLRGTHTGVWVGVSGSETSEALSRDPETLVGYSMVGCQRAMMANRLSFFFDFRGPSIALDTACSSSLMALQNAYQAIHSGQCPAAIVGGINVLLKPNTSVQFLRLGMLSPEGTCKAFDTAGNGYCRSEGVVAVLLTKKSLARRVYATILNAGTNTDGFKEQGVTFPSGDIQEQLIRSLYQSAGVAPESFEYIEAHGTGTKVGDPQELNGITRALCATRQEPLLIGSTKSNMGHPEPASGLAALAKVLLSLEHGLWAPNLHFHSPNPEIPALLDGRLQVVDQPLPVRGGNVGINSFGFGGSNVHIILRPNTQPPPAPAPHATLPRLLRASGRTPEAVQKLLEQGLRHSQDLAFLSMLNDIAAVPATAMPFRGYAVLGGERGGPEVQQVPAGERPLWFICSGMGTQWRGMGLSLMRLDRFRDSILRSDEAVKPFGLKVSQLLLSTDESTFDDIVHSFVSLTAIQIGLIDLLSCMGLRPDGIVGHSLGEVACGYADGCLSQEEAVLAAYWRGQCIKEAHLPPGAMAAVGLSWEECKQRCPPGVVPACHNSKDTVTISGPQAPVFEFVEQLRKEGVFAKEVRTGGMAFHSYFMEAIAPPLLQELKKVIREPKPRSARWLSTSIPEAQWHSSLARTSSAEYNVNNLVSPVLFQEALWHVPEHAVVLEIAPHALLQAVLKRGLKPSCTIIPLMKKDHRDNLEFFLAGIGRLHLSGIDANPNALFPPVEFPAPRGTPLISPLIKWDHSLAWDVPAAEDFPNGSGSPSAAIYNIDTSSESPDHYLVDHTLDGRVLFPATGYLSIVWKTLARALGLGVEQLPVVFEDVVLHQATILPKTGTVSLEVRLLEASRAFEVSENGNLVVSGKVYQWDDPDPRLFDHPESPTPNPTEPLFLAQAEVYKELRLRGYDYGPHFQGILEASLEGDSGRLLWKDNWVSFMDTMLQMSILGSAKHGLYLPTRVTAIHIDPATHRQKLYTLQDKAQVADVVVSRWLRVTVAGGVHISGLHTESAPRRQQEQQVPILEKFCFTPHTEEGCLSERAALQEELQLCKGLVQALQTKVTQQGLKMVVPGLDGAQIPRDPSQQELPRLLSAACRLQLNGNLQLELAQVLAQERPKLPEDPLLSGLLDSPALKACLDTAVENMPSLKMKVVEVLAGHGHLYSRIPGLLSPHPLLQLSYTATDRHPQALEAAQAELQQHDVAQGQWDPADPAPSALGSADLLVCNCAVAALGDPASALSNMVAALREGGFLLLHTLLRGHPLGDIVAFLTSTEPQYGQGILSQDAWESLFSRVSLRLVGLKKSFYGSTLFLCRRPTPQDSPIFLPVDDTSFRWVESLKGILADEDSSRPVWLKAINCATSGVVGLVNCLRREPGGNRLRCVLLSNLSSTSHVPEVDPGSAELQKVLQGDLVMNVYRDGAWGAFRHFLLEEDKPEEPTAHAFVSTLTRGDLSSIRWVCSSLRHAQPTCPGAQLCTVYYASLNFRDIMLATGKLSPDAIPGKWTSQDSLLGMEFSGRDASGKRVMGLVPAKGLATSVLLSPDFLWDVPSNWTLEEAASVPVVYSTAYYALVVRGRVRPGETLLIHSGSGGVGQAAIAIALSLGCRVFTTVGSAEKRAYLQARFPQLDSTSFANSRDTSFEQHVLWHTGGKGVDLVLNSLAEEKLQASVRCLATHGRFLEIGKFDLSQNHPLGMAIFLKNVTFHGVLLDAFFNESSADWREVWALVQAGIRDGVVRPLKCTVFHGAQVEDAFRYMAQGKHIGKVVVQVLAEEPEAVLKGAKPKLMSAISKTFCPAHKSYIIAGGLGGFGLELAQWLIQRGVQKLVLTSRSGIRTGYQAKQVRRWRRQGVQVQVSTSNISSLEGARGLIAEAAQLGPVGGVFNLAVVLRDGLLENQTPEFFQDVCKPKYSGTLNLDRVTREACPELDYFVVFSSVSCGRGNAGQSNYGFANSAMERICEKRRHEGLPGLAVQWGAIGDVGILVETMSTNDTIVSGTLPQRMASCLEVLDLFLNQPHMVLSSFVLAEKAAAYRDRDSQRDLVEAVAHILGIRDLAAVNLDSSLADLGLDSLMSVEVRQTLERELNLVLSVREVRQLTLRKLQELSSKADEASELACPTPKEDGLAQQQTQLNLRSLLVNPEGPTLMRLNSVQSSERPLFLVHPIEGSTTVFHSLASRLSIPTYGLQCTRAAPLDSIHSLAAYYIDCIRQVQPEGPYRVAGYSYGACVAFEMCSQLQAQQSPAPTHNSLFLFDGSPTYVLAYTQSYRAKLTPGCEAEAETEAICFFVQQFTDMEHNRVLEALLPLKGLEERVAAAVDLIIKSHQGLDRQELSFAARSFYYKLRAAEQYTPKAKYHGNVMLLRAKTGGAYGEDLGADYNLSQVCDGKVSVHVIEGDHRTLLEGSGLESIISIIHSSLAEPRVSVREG

inhibition at 10 µM [%]	IC50 [µM]	SMILES
60	6.03	CC(O)C(=O)N1CC(CN2C(=O)C3(CCOC3)N=C2c2ccc(-c3ccc(-c4cnn(C)c4)cc3)cc2)C1 (centres unmarked) [compound 711, 3-{[1-(2-Hydroxypropanoyl)azetidin-3-yl]methyl}-2-[4′-(1-methyl-1H-pyrazol-4-yl)biphenyl-4-yl]-7-oxa-1,3-diazaspiro[4.4]non-1-en-4-one]
69	2.45	Cn1cc(-c2ccc(-c3ccc(C4=NC5(CCOC5)C(=O)N4CC4CN(C(=O)[C@H]5CCCO5)C4)cc3)cc2)cn1 (stereo partly drawn) [compound 712, 2-[4′-(1-Methyl-1H-pyrazol-4-yl)biphenyl-4-yl]-3-({1-[(2R)-tetrahydro-furan-2-ylcarbonyl]azetidin-3-yl}methyl)-7-oxa-1,3-diazaspiro[4.4]non-1-en-4-one]
59	~6.76	Cn1cc(-c2ccc(-c3ccc(C4=NC5(CCOC5)C(=O)N4CC4CN(C(=O)N5CCCC5)C4)cc3)cc2)cn1 (centres unmarked) [compound 713, 2-[4′-(1-Methyl-1H-pyrazol-4-yl)biphenyl-4-yl]-3-{[1-(pyrrolidin-1-ylcarbonyl)azetidin-3-yl]methyl}-7-oxa-1,3-diazaspiro[4.4]non-1-en-4-one]
72	~2.4	O=C(C1CC1)N1CC(CN2C(=O)C3(CCOC3)N=C2c2ccc(-c3ccc4occc4c3)cc2)C1 (centres unmarked) [compound 718, 2-[4-(1-Benzofuran-5-yl)phenyl]-3-{[1-(cyclopropylcarbonyl)azetidin-3-yl]methyl}-7-oxa-1,3-diazaspiro[4.4]non-1-en-4-one]
67	3.89	CC(O)C(=O)N1CC(CN2C(=O)C3(CCOC3)N=C2c2ccc(-c3ccc4occc4c3)cc2)C1 (centres unmarked) [compound 719, 2-[4-(1-Benzofuran-5-yl)phenyl]-3-{[1-(2-hydroxypropanoyl)azetidin-3-yl]methyl}-7-oxa-1,3-diazaspiro[4.4]non-1-en-4-one]
63	5.75	O=C(N1CCCC1)N1CC(CN2C(=O)C3(CCOC3)N=C2c2ccc(-c3ccc4occc4c3)cc2)C1 (centres unmarked) [compound 721, 2-[4-(1-Benzofuran-5-yl)phenyl]-3-{[1-(pyrrolidin-1-ylcarbonyl)azetidin-3-yl]methyl}-7-oxa-1,3-diazaspiro[4.4]non-1-en-4-one]
56	6.61	Cn1ncc2cc(-c3ccc(C4=NC5(CCOC5)C(=O)N4CC4CN(C(=O)C5CC5)C4)cc3)ccc21 (centres unmarked) [compound 722, 3-{[1-(Cyclopropylcarbonyl)azetidin-3-yl]methyl}-2-[4-(1-methyl-1H-indazol-5-yl)phenyl]-7-oxa-1,3-diazaspiro[4.4]non-1-en-4-one]
55	7.94	CC(O)C(=O)N1CC(CN2C(=O)C3(CCOC3)N=C2c2ccc(-c3ccc4c(cnn4C)c3)cc2)C1 (centres unmarked) [compound 723, 3-{[1-(2-Hydroxypropanoyl)azetidin-3-yl]methyl}-2-[4-(1-methyl-1H-indazol-5-yl)phenyl]-7-oxa-1,3-diazaspiro[4.4]non-1-en-4-one]
47	4.17	Cn1ncc2cc(-c3ccc(C4=NC5(CCOC5)C(=O)N4CC4CN(C(=O)[C@H]5CCCO5)C4)cc3)ccc21 (stereo partly drawn) [compound 724, 2-[4-(1-Methyl-1H-indazol-5-yl)phenyl]-3-({1-[(2R)-tetrahydro-furan-2-ylcarbonyl]azetidin-3-yl}methyl)-7-oxa-1,3-diazaspiro[4.4]non-1-en-4-one]
73	1.95	COC(=O)N1CC2(C1)N=C(c1ccc(-c3ccc(-c4cnn(C)c4)cc3)cc1)N(C[C@@H]1CCN(C(=O)C(C)O)C1)C2=O (stereo partly drawn) [compound 726, Methyl 7-{[(3R)-1-(2-hydroxypropanoyl)pyrrolidin-3-yl]methyl}-6-[4′-(1-methyl-1H-pyrazol-4-yl)biphenyl-4-yl]-8-oxo-2,5,7-triazaspiro[3.4]oct-5-ene-2-carboxylate]
63	3.8	COC(=O)N1CC2(C1)N=C(c1ccc(-c3ccc4cccnc4c3)cc1)N(C[C@@H]1CCN(C(=O)C(F)(F)F)C1)C2=O [compound 731, Methyl 8-oxo-6-(4-quinolin-7-ylphenyl)-7-{[(3R)-1-(trifluoroacetyl)pyrrolidin-3-yl]methyl}-2,5,7-triazaspiro[3.4]oct-5-ene-2-carboxylate]
88	~1.2	COC(=O)N1CC2(C1)N=C(c1ccc(-c3ccc4cccnc4c3)cc1)N(C[C@@H]1CCN(C(=O)N3CCCC3)C1)C2=O [compound 732, Methyl 8-oxo-7-{[(3S)-1-(pyrrolidin-1-ylcarbonyl)pyrrolidin-3-yl]methyl}-6-(4-quinolin-7-ylphenyl)-2,5,7-triazaspiro[3.4]oct-5-ene-2-carboxylate]
84	1.7	COC(=O)N1CC2(C1)N=C(c1ccc(-c3ccc4occc4c3)cc1)N(C[C@@H]1CCN(C(=O)C(C)O)C1)C2=O (stereo partly drawn) [compound 734, Methyl 6-[4-(1-benzofuran-5-yl)phenyl]-7-{[(3R)-1-(2-hydroxypropanoyl)pyrrolidin-3-yl]methyl}-8-oxo-2,5,7-triazaspiro[3.4]oct-5-ene-2-carboxylate]
80	1.91	COC(=O)N1CC2(C1)N=C(c1ccc(-c3ccc4c(cnn4C)c3)cc1)N(C[C@@H]1CCN(C(=O)C(C)O)C1)C2=O (stereo partly drawn) [compound 738, Methyl 7-{[(3R)-1-(2-hydroxypropanoyl)pyrrolidin-3-yl]methyl}-6-[4-(1-methyl-1H-indazol-5-yl)phenyl]-8-oxo-2,5,7-triazaspiro[3.4]oct-5-ene-2-carboxylate]
46	8.91	COC(=O)N1CC2(C1)N=C(c1ccc(-c3ccc4c(cnn4C)c3)cc1)N(C[C@@H]1CCN(C(=O)N3CCCC3)C1)C2=O [compound 740, Methyl 6-[4-(1-methyl-1H-indazol-5-yl)phenyl]-8-oxo-7-{[(3S)-1-(pyrrolidin-1-ylcarbonyl)pyrrolidin-3-yl]methyl}-2,5,7-triazaspiro[3.4]oct-5-ene-2-carboxylate]
67	2.95	CC(C)C(=O)N1CCC2(CC1)N=C(c1ccc(-c3ccc4[nH]ncc4c3)cc1)N(CC1CN(C(=O)C3CC3)C1)C2=O [compound 754, 3-{[1-(Cyclopropylcarbonyl)azetidin-3-yl]methyl}-2-[4-(1H-indazol-5-yl)phenyl]-8-(2-methylpropanoyl)-1,3,8-triazaspiro[4.5]dec-1-en-4-one]
82	1.58	COCCN1CCC2(CC1)N=C(c1ccc(-c3ccc4[nH]ncc4c3)cc1)N(CC1CN(C(=O)C3CC3)C1)C2=O [compound 756]
71	3.39	O=C(C1CC1)N1CC(CN2C(=O)C3(CCN(CCO)CC3)N=C2c2ccc(-c3ccc4[nH]ncc4c3)cc2)C1 [compound 758, 3-{[1-(Cyclopropylcarbonyl)azetidin-3-yl]methyl}-8-(2-hydroxyethyl)-2-[4-(1H-indazol-5-yl)phenyl]-1,3,8-triazaspiro[4.5]dec-1-en-4-one]
38	9.12	Cn1cc(-c2ccc(-c3ccc(C4=NC5(CCNCC5)C(=O)N4CC4CN(C(=O)C5CC5)C4)cc3)cc2)cn1 [compound 759, 3-{[1-(Cyclopropylcarbonyl)azetidin-3-yl]methyl}-2-[4′-(1-methyl-1H-pyrazol-4-yl)biphenyl-4-yl]-1,3,8-triazaspiro[4.5]dec-1-en-4-one]

Reference: patent US10077261B2, “Imidazolin-5-one derivative useful as FASN inhibitors for the treatment of cancer” (Janssen Pharmaceutica NV, priority 2012, dated 2018)
